# Data reported in patent US12378250B2, “Tricyclic compound as IRAK4 inhibitor” (KOREA RESEARCH INSTITUTE OF CHEMICAL TECHNOLOGY, priority 2018, dated 2025).
# Columns and labels:
# [1] = system: TMD-8 cells (B-cell lymphoma cell line); experiment: Antitumor effect in SCID mice transplanted with TMD-8; type: in vivo
# Protocol: As experimental animals, severe combined immunodeficiency (SCID) mice (C.B-17/IcrCrj-scid, female) were purchased from Charles River Laboratories Japan, Inc., and used. The mice were acclimatized for 2 weeks or more in an animal room, where temperature (22±1° C.) and humidity (50±10%) were automatically adjusted, and then used for experiments, and allowed to freely ingest water and feed. This animal experiment was performed with the approval of the Animal Care and Use Committee of the Korea Research Institute of Chemical Technology. As a TMD-8 cell line, which is a B-cell lymphoma cell line, a cell line whose subculture had been maintained in the Korea Research Institute of Chemical Technology was used.
# Tumors in SCID mice were induced by transplanting TMD-8 cells at 9×10^6 cells/mouse to the right subcutaneous flank of each animal, and when the size of the transplanted tumor reached about 200 mm^3, drug administration was started ([…]). The test drug was suspended in a solution of 20% PEG400 and 3% Tween 80, and orally administered once a day for 14 days. After the test drug was administered, the diameter of the tumor (that is, a long diameter (a) and a short diameter (b) was measured using a calipers every 2 to 3 days, and according to a mathematical formula [size (mm^3) of tumor=(a×b^2)/2], the size (mm^3) of tumor was calculated, and is illustrated in FIGS. 3 and 4. As control drugs, PF-06650833 (Sigma) and ibrutinib (Medichem Express) were purchased and used, and the statistical significance of the antitumor effect of the test drug was verified using a student's T-test (SigmaStat, Jandel Scientific) program.
# [2] = system: IFN-α secretion, peripheral blood mononuclear cells (PBMCs); experiment: Suppression of IFN-α secretion in ODN2216-treated PBMCs (ELISA); type: cell-based; conditions: PBMC, 500 nM ODN2216, 72 hours, read-out: IFN-α, % inhibition degree
# In short: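 PBMCs (1×10^5 cells/well for TNF-α, 2×10^5 for IFN-α) preincubated 30 min with compound, then stimulated with 100 ng/ml LPS for 24 h (TNF-α) or 500 nM ODN2216 for 72 h (IFN-α). Cytokines in supernatants quantified by sandwich ELISA with TMB, absorbance 450/570 nm.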
smiles,measurement,setting,value
"Fc1cncc(-c2ccc3[nH]c4ncnc(N[C@H]5CC[C@H](N6CCOCC6)CC5)c4c3c2)c1 [Compound 6aaf, 6-(5-fluoropyridin-3-yl)-N-(trans-4-morpholinocyclohexyl)-9H-pyrimido[4,5-b]indole-4-amine]",antitumor effect (tumor size) in combination with ibrutinib,"[1]; administered in combination with ibrutinib, oral, once a day for 14 days",excellent effect
same,change in body weight of the experimental animals,[1]; during the test period,not much change
same,antitumor effect (tumor size) compared to PF-06650833,"[1]; oral, once a day for 14 days, TMD-8 xenograft","did not show a significant difference in effect when compared to PF-06650833, but showed a slightly better tendency"
same,inhibition at 0.1 µM,[2]; 0.1 μM,48%
same,inhibition at 1 µM,[2]; 1 μM,96%
